Columns and labels:
U87 human glioma cells = assay: In vitro apoptosis assay (Annexin V-FITC/propidium iodide, FACS); type: cell-based
Procedure: (§1) Human glioma cells (U-87) and HBMVECells were seeded into a 25-mL tissue-culture flask. After 24 h (about 60–70% confluencey), cells were treated with either […] (50 or 100 micrograms/mL) or staurosporine (positive control; 5 μM), a known inducer of apoptosis (Tamaoki, T., et al., Staurosporine, a potent inhibitor of phospholipid/Ca^++ dependent protein kinase, Biochem. Biophys. Res. Commun. 135: 397–402 [1986]; Matsumoto, H., and Sasaki, Y., Staurosporine, a protein kinase C inhibitor interferes with proliferation of arterial smooth muscle cells, Biochem. Biophys. Res. Commun. 158:105–109 [1989]). U-87 cells were returned to the CO2 incubator and incubated overnight. The following day, cells were washed twice with fresh growth medium and cells prepared for FACS analysis as described hereinbelow.
The changes in plasma membrane are one of the earliest events in cell death. In apoptotic cells the membrane phospholipid phosphatidylserine (PS) is translocated from the inner to the outer leaflet of the cell membrane in the early phases of apoptosis. Annexin V is a Ca^2+-dependent, phospholipid-binding protein that binds to PS with high affinity. Consequently, Annexin V (PharMingen) conjugated to a label, such as fluorescein isothiocyanate (FITC) or biotin, serves as a sensitive probe for flow cytometry analysis of cells that are undergoing apoptosis. […] (PharMingen; Vermes, I. et al., A novel assay for apoptosis. Flow cytometric detection of phosphatidylserine expression on early apoptotic cells using fluorescein labelled Annexin V, J. Immunol. Meth. 184:39–51 [1995]). Concurrently, propidium iodide is typically used as a standard flow cytometric viability probe, because the intact cell membranes of viable cells exclude propidium iodide, whereas the cell membranes of dead and damaged cells are permeable to propidium iodide. Cells that stain positive for Annexin V and negative for propidium iodide are undergoing apoptosis; cells that stain positive for both Annexin V and propidium iodide are either at the end stage of apoptosis, are undergoing necrosis, or are already dead; and cells that stain negative for both Annexin V-biotin and propidium iodide are alive and not undergoing measurable apoptosis. Briefly, the cells were washed twice with cold PBS and then resuspended in 1× binding buffer (10 mM HEPES/NaOH, pH 7.4, 140 mM NaCl, 2.5 mM CaCl2; 4° C.) at a concentration of about 1×10^6 cells/mL. A 100-μL aliquot of cell suspension was transferred to 5-mL culture tubes, and 2.5 μL of Annexin V-FITC and 2.5-μL of propidium iodide (PharMingen) were added to each tube. The cell suspensions were gently mixed and incubated for 15 min at room temperature in the dark, after which 400 μL of binding buffer was added to each tube of cells. […]

[1] = test system: implanted RG2 glioma tumor in Wistar rats; assay: In vivo apoptosis, intracarotid infusion, implanted tumor tissue (FACS); design: species or system rat; conditions: for apoptotic cells / necrotic cells / apoptosis / necrosis: RG2 tumor
Source text: (§2) The changes in plasma membrane are one of the earliest events in cell death. In apoptotic cells the membrane phospholipid phosphatidylserine (PS) is translocated from the inner to the outer leaflet of the cell membrane in the early phases of apoptosis. Annexin V is a Ca^2+-dependent, phospholipid-binding protein that binds to PS with high affinity. Consequently, Annexin V (PharMingen) conjugated to a label, such as fluorescein isothiocyanate (FITC) or biotin, serves as a sensitive probe for flow cytometry analysis of cells that are undergoing apoptosis. […] (PharMingen; Vermes, I. et al., A novel assay for apoptosis. Flow cytometric detection of phosphatidylserine expression on early apoptotic cells using fluorescein labelled Annexin V, J. Immunol. Meth. 184:39–51 [1995]). Concurrently, propidium iodide is typically used as a standard flow cytometric viability probe, because the intact cell membranes of viable cells exclude propidium iodide, whereas the cell membranes of dead and damaged cells are permeable to propidium iodide. Cells that stain positive for Annexin V and negative for propidium iodide are undergoing apoptosis; cells that stain positive for both Annexin V and propidium iodide are either at the end stage of apoptosis, are undergoing necrosis, or are already dead; and cells that stain negative for both Annexin V-biotin and propidium iodide are alive and not undergoing measurable apoptosis. Briefly, the cells were washed twice with cold PBS and then resuspended in 1× binding buffer (10 mM HEPES/NaOH, pH 7.4, 140 mM NaCl, 2.5 mM CaCl2; 4° C.) at a concentration of about 1×10^6 cells/mL. A 100-μL aliquot of cell suspension was transferred to 5-mL culture tubes, and 2.5 μL of Annexin V-FITC and 2.5-μL of propidium iodide (PharMingen) were added to each tube. The cell suspensions were gently mixed and incubated for 15 min at room temperature in the dark, after which 400 μL of binding buffer was added to each tube of cells. The cells were then washed once with 1×binding buffer. Analysis by flow cytometry was then conducted immediately, and no later than within one hour. The resulting analytic FACS graphs were typically divided into four quadrants wherein the upper right (UR) quadrant represented the number of necrotic cells; the lower left (LL) quadrant represented the number of viable cells; the lower right (LR) quadrant represented the number of apoptotic cells; and the upper left (UL) represented cells of an intermediate category, which generally represents cell debris and DNA fragments. The percentage of gated events in each quadrant was used to determine the total percentage of apoptotic and necrotic cells in each cell suspension.
A rat tumor model, which consisted of intracranially implanted RG2 cells (rat glioma cell line) in Wistar rats, was employed to investigate whether any of several potassium channel activators induce selective apoptosis of tumor cells in vivo.
The techniques for RG2 cell propagation and maintenance in tissue culture have been described (Sugita, M. and Black, K. L., Cyclic GMP-specific phosphodiesterase inhibition and intracarotid bradykinin infusion enhances permeability into brain tumors, Cancer Res. 58(5):914–20 [1998]; Inamura et al. [1994]; Nakano, S. et al., Increased brain tumor microvessel permeability after intracarotid bradykinin infusion is mediated by nitric oxide, Cancer Res. 56(17):4027–31 [1996]). Briefly, RG2 cells derived from a rat glioma are kept frozen until use, then are thawed and maintained in a monolayer culture in F12 medium with 10% calf serum.
The Wistar rats (approximately 140–160 g body weight) were anesthetized with intra-peritoneal ketamine (50 mg/kg), and glial cells (1×10^5) were implanted into the right hemisphere, but not the contralateral hemisphere, by intracerebral injection suspended in 5 μL F12 medium (1–2% methylcellulose) by a Hamilton syringe. The implantation coordinates were 3-mm lateral to the bregma and 4.5 mm deep to the dural surface. […]

[2] = test system: contralateral normal brain tissue of Wistar rats with implanted RG2 tumor; assay: In vivo apoptosis, intracarotid infusion, contralateral tissue (FACS); conditions: 20 μg/kg body mass bolus, positive control (FIG. 8J)
Source text: (§3) The changes in plasma membrane are one of the earliest events in cell death. In apoptotic cells the membrane phospholipid phosphatidylserine (PS) is translocated from the inner to the outer leaflet of the cell membrane in the early phases of apoptosis. Annexin V is a Ca^2+-dependent, phospholipid-binding protein that binds to PS with high affinity. Consequently, Annexin V (PharMingen) conjugated to a label, such as fluorescein isothiocyanate (FITC) or biotin, serves as a sensitive probe for flow cytometry analysis of cells that are undergoing apoptosis. […] (PharMingen; Vermes, I. et al., A novel assay for apoptosis. Flow cytometric detection of phosphatidylserine expression on early apoptotic cells using fluorescein labelled Annexin V, J. Immunol. Meth. 184:39–51 [1995]). Concurrently, propidium iodide is typically used as a standard flow cytometric viability probe, because the intact cell membranes of viable cells exclude propidium iodide, whereas the cell membranes of dead and damaged cells are permeable to propidium iodide. […]

9L rat glioma cells = assay: Cell proliferation assay (WST-1, OD 450 nm); type: cell-based; conditions: 1–100 μg/mL, 4 hours, dose-dependent (FIG. 1)
Procedure: (§4) Primary cell lines were prepared from human gliomas (glioblastoma multiforme [GBM] or astrocytoma) or established rat glioma cell lines (RG2, C6 and 9L) were used. Cultured human normal cell lines, brain microvessel endothelial cells (HBMVEC), or fetal astrocytes were used.
(§5) Cells (5×10^4 cells) were cultured in each well of 96-well microtiter culture plates and were allowed to achieve confluency to form a monolayer of cells in each well. For dose response studies cells were incubated with different concentrations (1–100 μg/mL) of NS-1619 or minoxidil sulfate for 4 hours at 37° C. in a CO2 (5%) incubator. Cells washed twice carefully with respective medium, and allowed to incubate overnight at 37° C. under 5% CO2. The following day, cells were incubated with WST-1 reagent (Boehringer Mannheim) at 37° C. in a CO2 (5%) incubator for 60–90 minutes, and optical density at 450 nm was measured with a 96-well plate reader. The magnitude of OD indicated the number of viable cells, greater the OD, higher the number of viable cells, correlated a standard curve of cell numbers.

C6 rat glioma cells = assay: Cell proliferation assay (WST-1, OD 450 nm); type: cell-based; conditions: 1–100 μg/mL, 4 hours, dose-dependent (FIG. 1)
Procedure: as §4, §5

RG2 rat glioma cells = assay: Cell proliferation assay (WST-1, OD 450 nm); type: cell-based
Procedure: as §4, §5

[3] = test system: human normal brain microvessel endothelial cells (HBMVEC); assay: Cell proliferation assay (WST-1, OD 450 nm); type: cell-based
Procedure: as §4, §5

[4] = test system: human normal fetal astrocytes (HFA); assay: Cell proliferation assay (WST-1, OD 450 nm); type: cell-based
Procedure: as §4, §5

[5] = test system: primary human GBM glioma cell line; assay: Cell proliferation assay (WST-1, OD 450 nm); type: cell-based
Procedure: as §4, §5

[6] = test system: primary human astrocytoma cell line; assay: Cell proliferation assay (WST-1, OD 450 nm); type: cell-based; conditions: 1–100 μg/mL, 4 hours, dose-dependent (FIG. 2)
Procedure: as §4, §5

malignant 9L cells = assay: In vitro apoptosis assay (Annexin V-FITC/propidium iodide, FACS); type: cell-based, rat; conditions: 50 μg/mL (FIG. 6E)
Source text: as §2

malignant C6 cells = assay: as above; type: cell-based, rat; conditions: 50 μg/mL (FIG. 6C)
Source text: as §2

malignant RG2 cells = assay: as above; type: cell-based, rat; conditions: 50 μg/mL (FIG. 6A)
Source text: as §2

primary human GBM cells = assay: as above; type: cell-based; conditions: 50 μg/mL (FIG. 7A)
Source text: as §3

non-malignant HBMVEC = assay: as above; type: cell-based, human; conditions: 50 μg/mL (FIG. 7C)
Procedure: as §1
The changes in plasma membrane are one of the earliest events in cell death. In apoptotic cells the membrane phospholipid phosphatidylserine (PS) is translocated from the inner to the outer leaflet of the cell membrane in the early phases of apoptosis. Annexin V is a Ca^2+-dependent, phospholipid-binding protein that binds to PS with high affinity. Consequently, Annexin V (PharMingen) conjugated to a label, such as fluorescein isothiocyanate (FITC) or biotin, serves as a sensitive probe for flow cytometry analysis of cells that are undergoing apoptosis. […]

[7] = test system: PTK activity in RG2 cell lysate; assay: Protein tyrosine kinase (PTK) assay; type: biochemical, rat; conditions: 1–50 μM (FIG. 10)
Procedure: A PTK assay kit (The Oncogene Research Products, Boston, Mass.) was used to determine the presence and relative amounts of protein kinase activity in tissue cytosols and cell extracts. Briefly, 1×10^4 RG2 cells seeded in a 50-mL culture flask, and allowed to achieve confluency to form a monolayer at 37° C. in a CO2 incubator.
Briefly, RG2 cells were harvested after trypsinization, and cells were pelleted by centrifugation. Cells were resuspended with extraction buffer (20 mM Tris, pH 7.4, 50 mM NaCl, 1 mM EDTA, 1 mM EGTA, 0.2 mM PMSF, 1 μg/mL pepstatin, 0.5 μg/mL leupetin, 0.2 mM Na3VO4, 5 mM mercaptoethanol, 0.1% Triton X-100), and cells were lysed using a cell homogenizer. After centrifugation, supernatant was separated from the pellet for PTK assay. The supernatant was treated with superoxide dismutase. Pervanadate (100 mM) was used in the PTK assay to inhibit […] activity, and protein concentration was determined by Lowry's method using a Bio-Rad protein assay kit. […]
Assay for PTK activity in RG2 cell-lysates was then performed according to the protocol supplied by the PTK assay kit's manufacturer. After adding the stop solution, absorbance measured in each well at 450 nm using a Spectramax Plus (Molecular Devices, Sunnyvale, Calif.).

Solubility in water = type: physicochemical
Source text: The skilled practitioner is cautious in regulating the final concentration of solvent in the infusion solution to avoid solvent-related toxicity. For example, a final ethanol concentration in an infusion solution up to 5–10% (v/v) is tolerated by most mammalian subjects with negligible toxicity.

[8] = 5 μM, positive control (FIG. 5C)
[9] = 20 μg/kg body mass bolus, positive control (FIG. 8I)
[10] = 50 μg/kg body mass, two consecutive daily doses, intracarotid (FIG. 8C)
[11] = 100 μg/kg body mass, three consecutive daily bolus doses (FIG. 9C)
[12] = 100 μg/kg body mass/day for two days, another rat (FIG. 8G)
[13] = 100 μg/kg body mass/day for two days, one rat (FIG. 8E)

Structure (SMILES): CN[C@@H]1C[C@H]2O[C@@](C)([C@@H]1OC)n1c3ccccc3c3c4c(c5c6ccccc6n2c5c31)C(=O)NC4 [staurosporin]
- apoptotic cells (U87 human glioma cells; [8]): 31%
- necrotic cells (U87 human glioma cells; [8]): 27%
- apoptotic cells [1, 9]: 35%
- necrotic cells [1, 9]: 17%
- apoptotic cells [2]: 5%
- necrotic cells [2]: 11%

Structure (SMILES): O=c1[nH]c2cc(C(F)(F)F)ccc2n1-c1cc(C(F)(F)F)ccc1O [NS-1619, 1,3-dihydro-1-[2-hydroxy-5-(trifluoromethyl)phenyl]-5-(trifluoromethyl)-2H-benzimidazol-2-one]
- cell proliferation (9L rat glioma cells): significantly blocks cell proliferation
- cell proliferation (C6 rat glioma cells): significantly blocks cell proliferation
- cell death (RG2 rat glioma cells; 50 μg/mL (FIG. 3)): 70%
- cell proliferation (RG2 rat glioma cells; 1–100 μg/mL, 4 hours, dose-dependent (FIG. 1)): significantly blocks cell proliferation
- sensitivity (cell death) ([3]; HBMVEC, 50 μg/mL (FIG. 4)): insensitive
- cell proliferation ([3]; normal HBMVEC, 1–100 μg/mL, 4 hours (FIG. 2)): without affecting
- sensitivity (cell death) ([4]; HFA, 50 μg/mL (FIG. 4)): insensitive
- cell proliferation ([4]; normal HFA, 1–100 μg/mL, 4 hours (FIG. 2)): without affecting
- cell death ([5]; 50 μg/mL (FIG. 4)): 90%
- cell proliferation ([5]; 1–100 μg/mL, 4 hours, dose-dependent (FIG. 2)): significantly blocked cell proliferation
- cell proliferation [6]: significantly blocked cell proliferation
- apoptotic cells (U87 human glioma cells; 50 μg/mL): 21%
- necrotic cells (U87 human glioma cells; 50 μg/mL): 14%
- apoptotic cells (malignant 9L cells): 42%
- necrotic cells (malignant 9L cells): 32%
- apoptotic cells (malignant C6 cells): 25%
- necrotic cells (malignant C6 cells): 35%
- apoptosis (malignant RG2 cells): 29%
- necrosis (malignant RG2 cells): 29%
- apoptosis (primary human GBM cells): 24%
- necrosis (primary human GBM cells): 49%
- apoptosis (non-malignant HBMVEC): 4%
- induction of necrosis (non-malignant HBMVEC): did not significantly induce
- apoptotic cells [1, 10]: 28%
- necrotic cells [1, 10]: 24%
- apoptosis [1, 11]: 55%
- necrosis [1, 11]: 9%
- apoptosis [1, 12]: 34%
- necrosis [1, 12]: 9%
- apoptosis [1, 13]: 44%
- necrosis [1, 13]: 15%
- cell death in tumor tissue ([1]; infusion for two or three consecutive days at up to 100 μg/kg body mass): inducing a selective cell death in tumor tissue
- PTK activity [7]: did not significantly affect PTK activity
- solubility in water (Solubility in water): not easily dissolved in water

— patent US7211561B2, “Method for inducing selective cell death of malignant cells by activation of calcium-activated potassium channels (KCa)” (Cedars-Sinai Medical Center, priority 2001, dated 2007)
